14 molecules from patent publication US10226448B2, “3-(1H-pyrrolo[3,2-C]pyridin-2-yl)-1H-pyrazolo[3,4-B]pyridines and therapeutic uses thereof” (Samumed, LLC, priority 2015, dated 2019) can be followed below.

Holding throughout (format): cell-based
The test system of assay [1] is IL-6 in THP-1 cells. Briefly: IL-6 inhibition in LPS-stimulated THP-1 human monocyte cells (HTRF). The settings on record: for EC50: IL-6 inhibition, LPS-stimulated THP-1 cells, HTRF, 10-point dose-response starting from 10 μM; for inhibition at 10 µM: THP-1, read-out: percentage in parentheses beside EC50 >10. The protocol:
Compound Screening: THP-1 cells were cultured in basal media with 1% FBS for 24 hours before the start of the assay. […] THP-1 cells were plated at 5000 cells/well in the 384-well plates and incubated at 37° C. for 2 h. 500 ng/mL of LPS was added after 2 hours and cells were incubated for another 22 hours at 37° C. Plates were spun in a centrifuge for 1 minute at […] and a mixture of anti-IL6 XL665, and anti-IL6 Cryptate diluted in reconstitution buffer (Cisbio Inc.) was added to each well. Following incubation for 3 hrs at room temperature, Homogeneous Time-Resolved Fluorescence (HTRF) was measured using the Envision (Perkin Elmer) at 665 nm and […]. The ratio of fluorescence at 665 nm to 620 nm was used as a readout for IL6 quantification. All samples were processed in duplicate. Readings were normalized to DMSO treated cells and normalized activities were utilized for EC50 calculations using the dose-response log (inhibitor) vs. response variable slope (four parameters) nonlinear regression feature available in GraphPad Prism 5.0 (or Dotmatics).
(In general: In TR-FRET formats the signal depends on donor and acceptor labels being close together.)

In assay [2] the test system is Wnt activity (Sp5-Luc reporter, TCF/LEF binding sites) in SW480 colon carcinoma cells. Kind of assay: Wnt activity screening assay: Sp5-Luc reporter gene assay in SW480 cells. The following applies: Homo sapiens; for EC50: Sp5-Luc reporter, SW480 cells, overnight incubation; for inhibition at 10 µM: SW480, read-out: percent inhibition at 10 μM. An excerpt: The screening assay for Wnt activity is described as follows. Reporter cell lines can be generated by stably transducing cancer cell lines (e.g., colon cancer) or primary cells (e.g., IEC-6 intestinal cells) with a lentiviral construct that includes a Wnt-responsive promoter driving expression of the firefly luciferase gene.
SW480 colon carcinoma cells were transduced with a lentiviral vector expressing luciferase with a human Sp5 promoter consisting of a sequence of eight TCF/LEF binding sites. SW480 cells stably expressing the Sp5-Luc reporter gene and a hygromycin resistance gene were selected by treatment with 150 μg/mL of hygromycin for 7 days. These stably transduced SW480 cells were expanded in cell culture and used for all further screening activities. […] For Sp5-Luc reporter gene assays, the cells were plated at 4,000 cells/well in 384-well plates with medium containing 1% fetal bovine serum and incubated overnight at 37° C. and 5% CO2. Following incubation, 20 μl of BrightGlo luminescence reagent (Promega) was added to each well of the 384-well assay plates. The plates were placed on an orbital shaker for 2 min and then luminescence was quantified using the Envision (Perkin Elmer) plate reader. Readings were normalized to DMSO only treated cells, and normalized activities were utilized for EC50 calculations using the dose-response log (inhibitor) vs. response variable slope (four parameters) nonlinear regression feature available in GraphPad Prism 5.0 (or Dotmatics).
For orientation: In a reporter assay the amount or activity of a reporter protein is the signal.

The test system of assay [3] is SW480 colon cancer cells. Kind of assay: Cell viability assay (CellTiter-Blue) in SW480 colon cancer cells. The settings on record: Homo sapiens; for EC50: 96 h, SW480 cell viability, four days, CellTiter-Blue; for inhibition at 10 µM: SW480, read-out: percent inhibition at 10 μM. The protocol: Representative compounds were screened using the following assay procedure to assess the effect on cell viability as described below.
Approximately 2×10^3 SW480 colon cancer cells were seeded into each well and allowed to incubate in the presence or absence of compound for four days at 37° C./5% CO2. Eight replicates of DMSO-treated cells served as controls and cells treated with compound were performed in duplicate.
After incubation, 20 μL of CellTiter-Blue (Promega) was added to each well allowed to incubate for approximately 3 hours. This reagent was a buffered solution which contains resazurin, metabolically active cells were able to reduce rezarurin (blue) into resorufin (pink) which was highly fluorescent. This measured fluorescence was used as a readout for cell viability.
For orientation: The colour change of resazurin is a common sign of viable cells or microbes.

Assay [4] relates to LL29 cells (primary human fibroblasts derived from IPF patients), α-smooth muscle actin. Kind of assay: Inhibition of the fibrotic process: αSMA staining in TGF-β1 treated primary human fibroblasts from IPF patients (LL29 cells). The following applies: Fibroblast; for EC50: 96 h, LL29 cells, TGF-β1 20 ng/mL, 4 days, % αSMA positive cells; for inhibition at 10 µM: read-out: percent inhibition at 10 μM. The protocol:
Representative compounds were screened using primary human fibroblasts (derived from IPF patients) treated with TGF-β1 to determine their ability to inhibit the fibrotic process.
LL29 cells are plated at 1,500 cells/well in 80 μL/well F12 medium supplemented with 1% Fetal Bovine Serum. […] Wells treated with TGF-β1 and containing DMSO were used as controls. […] Following incubation for 4 days, SYTOX green nucleic acid stain (Life Technologies [Thermo Fisher Scientific]) was added to the wells at a final concentration of 1 μM and incubated at room temperature for 30 min.

Take `Fc1cccc(-c2nccc3[nH]c(-c4n[nH]c5ncc(-c6cncc(CN7CCCCC7)c6)cc45)cc23)c1` [Compound 15, 3-(4-(3-Fluorophenyl)-1H-pyrrolo[3,2-c]pyridin-2-yl)-5-(5-(piperidin-1-ylmethyl)pyridin-3-yl)-1H-pyrazolo[3,4-b]pyridine]: the EC50 in assay [1] turned out to be 4.78 µM; in assay [2], 1.82 µM; in assay [3], 856 nM; in assay [4], 660 nM.

As for `c1ccc(-c2cnc3[nH]nc(-c4cc5cnccc5[nH]4)c3c2)nc1` [Compound 280, 5-(Pyridin-2-yl)-3-(1H-pyrrolo[3,2-c]pyridin-2-yl)-1H-pyrazolo[3,4-b]pyridine], the EC50 in assay [1] turned out to be 3.69 µM; in assay [2] it was 3.13 µM; in assay [3], 1140 nM; in assay [4], 3870 nM.

Consider `Fc1cccc(-c2nccc3[nH]c(-c4n[nH]c5ncc(-c6ccncc6)cc45)cc23)c1` [Compound 18, 3-(4-(3-Fluorophenyl)-1H-pyrrolo[3,2-c]pyridin-2-yl)-5-(pyridin-4-yl)-1H-pyrazolo[3,4-b]pyridine], for which the EC50 in assay [1] was more than 10 µM; in assay [2], more than 10 µM; in assay [3] it was 738 nM; in assay [4] it was 542 nM. The inhibition at 10 µM in assay [1] was 0%; in assay [2], 22.6%.

With `CC(C)(C)CC(=O)Nc1cncc(-c2cnc3[nH]nc(-c4cc5c(-c6ccc(F)cc6)nccc5[nH]4)c3c2)c1` [Compound 44, N-(5-(3-(4-(4-Fluorophenyl)-1H-pyrrolo[3,2-c]pyridin-2-yl)-1H-pyrazolo[3,4-b]pyridin-5-yl)pyridin-3-yl)-3,3-dimethylbutanamide], the EC50 in assay [1] worked out at 2.04 µM; in assay [2] it was 0.986 µM; in assay [3] it was 700 nM; in assay [4], 315 nM.

Turning to `c1cc2[nH]c(-c3n[nH]c4ncc(-c5cncc(OC6CCCCC6)c5)cc34)cc2c(N2CCCCC2)n1` [Compound 607, 5-(5-(Cyclohexyloxy)pyridin-3-yl)-3-(4-(piperidin-1-yl)-1H-pyrrolo[3,2-c]pyridin-2-yl)-1H-pyrazolo[3,4-b]pyridine], the EC50 in assay [1] was 7.28 µM; in assay [2], 3.98 µM; in assay [3], 3540 nM; in assay [4], 1990 nM.

`CN(C)Cc1cncc(-c2cnc3[nH]nc(-c4cc5c(N6CCCCC6)nccc5[nH]4)c3c2)c1` [Compound 181, N,N-Dimethyl-1-(5-(3-(4-(piperidin-1-yl)-1H-pyrrolo[3,2-c]pyridin-2-yl)-1H-pyrazolo[3,4-b]pyridin-5-yl)pyridin-3-yl)methanamine]: the EC50 in assay [1] was more than 10 µM; in assay [2], more than 10 µM; in assay [3] it was 7760 nM; in assay [4], 9720 nM. Further, the inhibition at 10 µM in assay [1] came to 41.5%; in assay [2] it was 20.3%.

For `CS(=O)(=O)NCc1cc(F)cc(-c2nccc3[nH]c(-c4n[nH]c5ncc(-c6cncc(CNCc7ccccc7)c6)cc45)cc23)c1` [Compound 500, N-(3-(2-(5-(5-((Benzylamino)methyl)pyridin-3-yl)-1H-pyrazolo[3,4-b]pyridin-3-yl)-1H-pyrrolo[3,2-c]pyridin-4-yl)-5-fluorobenzyl)methanesulfonamide], the EC50 in assay [1] was more than 10 µM; in assay [2], more than 10 µM; in assay [3], more than 10000 nM; in assay [4], more than 10000 nM. Further, the inhibition at 10 µM is 31.3% in assay [1], 19.1% in assay [2], 23.4% in assay [3] and 18.3% in assay [4].

For `CN(C)c1cncc(-c2cnc3[nH]nc(-c4cc5c(-c6cccnc6)nccc5[nH]4)c3c2)c1` [Compound 91, N,N-Dimethyl-5-(3-(4-(pyridin-3-yl)-1H-pyrrolo[3,2-c]pyridin-2-yl)-1H-pyrazolo[3,4-b]pyridin-5-yl)pyridin-3-amine], the EC50 in assay [1] is more than 10 µM; in assay [2], more than 10 µM; in assay [3], more than 10000 nM; in assay [4], 6980 nM. Moreover, the inhibition at 10 µM in assay [1] worked out at 32.3%; in assay [2] it was 41.6%; in assay [3], 3%.

With `FC1(F)CCN(Cc2cncc(-c3cnc4[nH]nc(-c5cc6c(-c7ccncc7)nccc6[nH]5)c4c3)c2)C1` [Compound 138, 5-(5-((3,3-Difluoropyrrolidin-1-yl)methyl)pyridin-3-yl)-3-(4-(pyridin-4-yl)-1H-pyrrolo[3,2-c]pyridin-2-yl)-1H-pyrazolo[3,4-b]pyridine], the EC50 in assay [1] was 3.63 µM; in assay [2], 1.15 µM; in assay [3], more than 10000 nM; in assay [4], 2220 nM. Moreover, the inhibition at 10 µM in assay [3] came out at 14.3%.

For the molecule `c1cc(-c2cnc3[nH]nc(-c4cc5c(N6CCCCC6)nccc5[nH]4)c3c2)ccn1` [Compound 186, 3-(4-(Piperidin-1-yl)-1H-pyrrolo[3,2-c]pyridin-2-yl)-5-(pyridin-4-yl)-1H-pyrazolo[3,4-b]pyridine], the EC50 was more than 10 µM in assay [1], more than 10 µM in assay [2], more than 10000 nM in assay [3] and more than 10000 nM in assay [4]. In addition, the inhibition at 10 µM in assay [1] was determined as 25.4%; in assay [2], 30.8%; in assay [3] it was 11.1%; in assay [4], 0%.

As for `Fc1cccc(-c2nccc3[nH]c(-c4n[nH]c5ncc(C6CCNCC6)cc45)cc23)c1` [Compound 505, 3-(4-(3-Fluorophenyl)-1H-pyrrolo[3,2-c]pyridin-2-yl)-5-(piperidin-4-yl)-1H-pyrazolo[3,4-b]pyridine], the EC50 in assay [1] was 3.45 µM; in assay [2], 3.85 µM; in assay [3] it was 4470 nM; in assay [4], 5550 nM.

Regarding `Fc1cccc(-c2nccc3[nH]c(-c4n[nH]c5ncc(-c6ccccn6)cc45)cc23)c1` [Compound 28, 3-(4-(3-Fluorophenyl)-1H-pyrrolo[3,2-c]pyridin-2-yl)-5-(pyridin-2-yl)-1H-pyrazolo[3,4-b]pyridine], the EC50 was 3.46 µM in assay [1], 1.29 µM in assay [2], 519 nM in assay [3] and 752 nM in assay [4].

For the molecule `CN1CCN(c2nccc3[nH]c(-c4n[nH]c5ncc(-c6cncnc6)cc45)cc23)CC1` [Compound 251, 3-(4-(4-Methylpiperazin-1-yl)-1H-pyrrolo[3,2-c]pyridin-2-yl)-5-(pyrimidin-5-yl)-1H-pyrazolo[3,4-b]pyridine], the EC50 in assay [1] was more than 10 µM; in assay [2] it was more than 10 µM; in assay [3], more than 10000 nM; in assay [4], more than 10000 nM. Moreover, the inhibition at 10 µM in assay [1] stood at 35.7%; in assay [2], 17.8%; in assay [3], 8.3%; in assay [4], 24.7%.

For `FC1(F)CCN(Cc2cncc(-c3cnc4[nH]nc(-c5cc6c(-c7ccoc7)nccc6[nH]5)c4c3)c2)C1` [Compound 334, 5-(5-((3,3-Difluoropyrrolidin-1-yl)methyl)pyridin-3-yl)-3-(4-(furan-3-yl)-1H-pyrrolo[3,2-c]pyridin-2-yl)-1H-pyrazolo[3,4-b]pyridine], the EC50 in assay [1] was determined as 0.102 µM; in assay [2], 0.199 µM; in assay [3], 369 nM; in assay [4] it was 912 nM.

The EC50 is the concentration needed to bring the measured effect to its halfway point.
